Experimental data from PubChem BioAssay AID1845207 (Molecular Pharmacology Branch, DTP, NCI, 2023).
Several values for one entry are separate records, joined by “and”; a condition that tells them apart may be missing. Equal values may be shown once. Activity calls are given as the source filed them. How the source made its calls: active means viability on the fitted dose curve at most 10% of control; inactive means the rest.

Tested on: NCI-H1876 tumor spheroid viability
Assay: Anticancer human tumor NCI-H1876 cell line growth inhibition;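 further: spheroids exposed to compounds for seven days before the viability read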;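 on viability, T/C: percent of DMSO vehicle control viability so 100% = vehicle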
Conditions: spheroids with HUVEC and MSC; for viability, T/C: stronger effect = lower value
From the text: Multicellular complex tumor spheroid response to DNA repair inhibitors in combination with DNA-damaging drugs
This study explores the anticancer activities of DNA-damaging drugs and inhibitors of DNA damage repair, both as single agents and in combinations. Complex tumor spheroids comprised of malignant cells, endothelial cells and mesenchymal stem cells served as an in vitro model for human solid tumors. This model system incorporates physiologically relevant features and patient-derived or established malignant cell lines with clinically relevant genetic alterations from many tumor types. Twenty-six patient-derived or established malignant cell lines were evaluated representing sarcoma, melanoma, small cell lung cancer (SCLC), non-small cell lung cancer (NSCLC), as well as bladder, ovarian and pancreatic cancers. The concentration ranges selected for each drug and investigational agent were based upon clinically achievable concentrations if the clinical Cmax of the agent was known.
Compounds. The drugs and compounds olaparib (NSC753686), talazoparib (NSC767125), berzosertib (NSC777718), elimusertib (NSC800525), nedisertib (NSC802822), VX-984 (NSC792969), AZD-1390 (NSC803789), temozolomide (NSC362856), topotecan (NSC609699), trabectedin (NSC813783), staurosporine (NSC755774), and gemcitabine (NSC613327) were obtained from the National Cancer Institute (NCI) Developmental Therapeutics Program Chemical Repository. The FDA-approved anticancer drug set is available from the Developmental Therapeutics Program at https://dtp.cancer.gov/organization/dscb/obtaining/available_plates.htm. […] The stock solutions were prepared in dimethyl sulfoxide (DMSO, Sigma-Aldrich, St. Louis, MO, cat. D2650) at 400-fold the tested concentration and stored at -70 degrees C. Prior to their use, the stock solutions were diluted in fresh medium and the final DMSO concentration in the assay was 0.25% (v/v). All drugs and investigational agents were tested over a range starting from a high concentration at or near the clinical Cmax and decreasing in half-log increments. If the clinical Cmax for an agent had not been determined, the highest concentration tested was 10 microM.
Cell Lines. The patient-derived cancer cell (PDC) lines: 156681-154-R-J1-PDC, 283228-195-R-J1-PDC, 287954-098-R-J1-PDC, 292921-168-R-J2-PDC, 349418-098-R-PDC, 425362-245-T-J1-PDC, 556581-035-R-J1-PDC, and BL0293-F563-PDC were received from the NCI Patient-Derived Models Repository (PDMR, https://pdmr.cancer.gov). The established cell lines HS-SY-2 (RRID:CVCL_8719), MPNST, and SYO-1 (RRID:CVCL_7146) were obtained from the Sloan Kettering Institute. The alveolar soft parts sarcoma cell line ASPS-1 (RRID:CVCL_S738) was established at the NCI and grown from internal seed stocks. The following established cell lines were purchased from the American Type Culture Collection (ATCC, Manassas, VA): G-401 (ATCC, cat. CRL-1441, RRID:CVCL_0270), SW982 (ATCC, cat. HTB-93, RRID:CVCL_1734), VA-ES-BJ (ATCC, cat. CRL-2138, RRID:CVCL_1785), NCI-H719 (ATCC, cat. CRL-5837, RRID:CVCL_1582), NCI-H196 (ATCC, cat. CRL-5823, RRID:CVCL_1509), NCI-H841 (ATCC, cat. CRL-5845, RRID:CVCL_1595), NCI-H1618 (ATCC, cat. CRL-5879, RRID:CVCL_1480), NCI-H1876 (ATCC, cat. CRL-5902, RRID:CVCL_1503), DMS 114 (ATCC, cat. CRL-2066; RRID:CVCL_1174), NCI-H211 (ATCC, cat. CRL-5824; RRID:CVCL_1529), and SW 1271 (ATCC, cat. CRL-2177, RRID:CVCL_1716). The small cell lung cancer cell line COR-L88 was purchased from Sigma-Aldrich (cat. 92031917-1VL, RRID:CVCL_1141). The non-small cell lung cancer cell lines NCI-H226 (RRID:CVCL_1544) and NCI-H322M (RRID:CVCL_1557) were established at the NCI and grown from internal seed stocks. Pooled donor human umbilical vein endothelial cells (HUVEC, Lonza, cat. CC-2519) and human mesenchymal stem cells (hMSC, Lonza, cat. PT-2501) were purchased from Lonza (Walkersville, MD).
Cell Culture. All cells were maintained in an incubator at 37 degrees C and 5% CO2 with 95% humidity. […]

[1] = compound alone, run of 11/07/2019
[2] = compound alone, run of 12/16/2019

Row | SMILES | viability, T/C (compound 0.0316 µM) | viability, T/C (compound 0.1 µM) | viability, T/C (compound 0.316 µM) | viability, T/C (compound 1 µM) | viability, T/C (compound 3.16 µM) | viability, T/C (compound 10 µM) | IC50 (curve of compound) | viability, T/C (compound 0.03 µM) | viability, T/C (compound 0.0949 µM) | viability, T/C (compound 0.3 µM) | viability, T/C (compound 3 µM) | other results
1 | CC(C)n1c(=O)n(C)c2cnc3cc(F)c(-c4ccc(OCCCN5CCCCC5)nc4)cc3c21 | 100% and 85.6% and 104% | 98.1% and 49.6% and 104% | 103% and 53.3% and 100% | 103% and 47.4% and 104% | 107% and 28.5% and 105% | 102% and 11.4% and 93.3% | – | – | – | – | – | –
2 | CC1COCCN1c1cc(-c2ccnn2C)c2ccnc(-c3ccn[nH]3)c2n1 (configuration not stated) | 54% and 61.9% and 73.3% | 32.2% and 41.5% and 41.2% | 18.1% and 48.3% and 20.1% | 6.97% and 20% and 7.21% | 3.09% and 11.9% and 3.22% | 2.37% and 7.33% and 2.52% | 39.1 nM and 121 nM and 73.6 nM | – | – | – | – | –
3 | CC[C@@]1(O)C(=O)OCc2c1cc1n(c2=O)Cc2cc3c(CN(C)C)c(O)ccc3nc2-1 | – | – | – | – | – | – | – | 12.1% [middle of 10 runs] | 8% [middle of 10 runs] | 3.52% [middle of 10 runs] | – | viability, T/C (compound 0.003 µM): 84.5% [middle of 10 runs]; IC50 [1]: 7.08 nM [middle of 5 runs]; IC50 [2]: 5.61 nM [middle of 5 runs]
4 | CNCc1ccc(-c2cc(-c3nc(-c4ccc(S(=O)(=O)C(C)C)cc4)cnc3N)on2)cc1 | – | – | – | – | – | – | 126 nM and 95.3 nM and 906 nM | 76.6% and 72.2% and 99.9% | 59.2% and 49.9% and 105% | 31.1% and 27.1% and 92.3% | 10.2% and 0.26% and 20.5% | viability, T/C (compound 0.00949 µM): 97.7% and 86.9% and 104%; viability, T/C (compound 0.949 µM): 16.1% and 10.4% and 48.3%
5 | COc1cc(C)[nH]c(=O)c1CN1CCc2c(Cl)cc(C(OC)C3COC3)c(Cl)c2C1=O (configuration not stated) | 106% and 117% and 105% | 109% and 112% and 103% | 101% and 110% and 98.1% | 102% and 103% and 92.3% | 98.3% and 96.9% and 95.2% | 94.2% and 77.4% and 86.5% | > 10000 nM | – | – | – | – | –
6 | COc1cc2c(cc1O)CCNC21CSC2c3c(OC(C)=O)c(C)c4c(c3C(COC1=O)N1C(O)C3Cc5cc(C)c(OC)c(O)c5C(C21)N3C)OCO4 (configuration not stated) | – | – | – | – | – | – | – | – | – | – | – | viability, T/C (compound 30 pM): 102% [middle of 10 runs]; viability, T/C (compound 94.9 pM): 90.2% [middle of 10 runs]; viability, T/C (compound 0.000949 µM): 2.68% [middle of 10 runs]; viability, T/C (compound 0.003 µM): 0.78% [middle of 10 runs]; IC50 [2]: 0.197 nM [middle of 10 runs]
7 | COc1ccc([C@@H](O)c2cc(-c3ncnc4cc(N5CCOCC5)ccc34)c(F)cc2Cl)nn1 | 105% and 98% and 103% | 104% (2×) and 95.2% | 102% and 74.6% and 96.1% | 97.6% and 98% | 81.2% and 26.2% and 77.6% | – | 5500 nM and 1120 nM and 6510 nM | – | – | – | – | outcome (compound 1 µM): inactive
8 | Cc1cc(C)c(CNC(=O)c2cc(-c3ccc(CN4CCOCC4)cc3)cc3c2cnn3C2CCCC2)c(=O)[nH]1 | 100% and 97.7% and 96.6% | 102% and 83.9% and 79.4% | 105% and 63% and 63.8% | 105% and 49.2% and 51.9% | 107% and 28.4% and 30.3% | 99.2% and 12% and 11.3% | – | – | – | – | – | –
9 | Cc1sc2c(c1C)C(c1ccc(Cl)cc1)=NC(CC(=O)Nc1ccc(O)cc1)c1nnc(C)n1-2 (configuration not stated) | – | – | – | – | – | – | 98.8 nM and 112 nM and 709 nM | 71.5% and 70.6% and 109% | 51.4% and 53% and 109% | 33.7% and 35.1% and 81.6% | 12.9% and 9.5% and 12.3% | viability, T/C (compound 0.00949 µM): 94.3% and 86.8% and 105%; viability, T/C (compound 0.949 µM): 17% and 16% and 39.7%
10 | Cn1ncnc1[C@H]1c2n[nH]c(=O)c3cc(F)cc(c23)N[C@@H]1c1ccc(F)cc1 | – | – | – | – | – | – | 104 nM and 84.6 nM and 67.4 nM | 73.5% and 65.7% and 71.3% | 52.3% and 49.7% and 39.4% | 28.3% and 25.2% and 21.1% | 0.28% and 7.28% and 3.57% | viability, T/C (compound 0.00949 µM): 88.9% and 68.4% and 87.4%
11 | Cn1nnc2c(C(N)=O)ncn2c1=O | – | – | – | 95% [middle of 10 runs] | 103% [middle of 10 runs] | 99.7% [middle of 10 runs] | – | – | – | – | – | IC50 [1]: > 100000 nM and 19100 nM and 92000 nM
12 | O=C(c1cc(Cc2n[nH]c(=O)c3ccccc23)ccc1F)N1CCN(C(=O)C2CC2)CC1 | – | – | – | – | – | – | > 30000 nM and 3960 nM and 5070 nM | – | 87% and 103% and 107% | 76% and 89.7% and 106% | 72.1% and 55.2% and 76.5% | viability, T/C (compound 0.949 µM): 84.4% and 76.2% and 100%; viability, T/C (compound 9.49 µM): 64% and 33.9% and 18.2%; viability, T/C (compound 30 µM): 66.7% and 19.1% and 12.6%
13 | [2H]c1nc(C)nc([2H])c1-c1cc(NC[C@@H](C)c2cccc3c(C(=O)NC)ccnc23)ncn1 | 102% and 103% and 99.3% | 107% and 55.1% and 102% | 99.8% and 70.6% and 102% | 102% and 101% and 99.3% | 102% and 90.8% and 97.4% | 96.6% and 71% and 95% | > 10000 nM | – | – | – | – | –
